Measurements: ChEMBL document CHEMBL3507680, “University of Dundee, Gates Library screen for HepG2 cell viability”

Test: Human HepG2 cell viability assay in 384 well format
Type: toxicity, cell-based
Set-up: dose 125 nL, time 70.5 hour; concentration not given beside the values
Conditions: HepG2 cells, read-out: Inhibition

Q: Which cytotoxicity at 70.5 h does the source give for `Cc1cccc(N2CCN(C(=O)c3c(C)nn(C)c3C)CC2)c1C` here?
A: Its cytotoxicity at 70.5 h is -0.882%.

Q: With `O=C1CC(N(C(=O)COc2ccc(F)cc2F)C2CC2)C(=O)N1` (stereo not given) as the compound, how does the cytotoxicity at 70.5 h read?
A: Its cytotoxicity at 70.5 h is -6.63%.

Q: For `NC(=O)NC(=O)CCSCc1coc(-c2cccc(Cl)c2)n1`, which cytotoxicity at 70.5 h is on record?
A: The cytotoxicity at 70.5 h was -17.3%.

Q: For `O=C1CC(N(C(=O)CCc2cc(F)ccc2F)C2CC2)C(=O)N1` (stereo not given), which cytotoxicity at 70.5 h is on record?
A: Its cytotoxicity at 70.5 h is -7.39%.

Q: With `Cc1ccccc1S(=O)(=O)NC(=O)C1(c2ccccc2)CCC1` as the compound, how does the cytotoxicity at 70.5 h read?
A: Its cytotoxicity at 70.5 h is -9.55%.

Q: For `c1ccc(OCCN2CCC(n3cncn3)CC2)cc1`, which cytotoxicity at 70.5 h is on record?
A: Its cytotoxicity at 70.5 h is 25.3%.

Q: For `Cc1ccc(S(=O)(=O)NC(=O)C2(c3ccccc3)CCC2)c(C)c1`, which cytotoxicity at 70.5 h is on record?
A: The cytotoxicity at 70.5 h was -10.7%.

Q: For `Cc1ccc(CNC(=O)Cn2c(=O)c3cccnc3n2C)cc1F`, which cytotoxicity at 70.5 h is on record?
A: Its cytotoxicity at 70.5 h is -12.5%.

Q: For `COCCNC(=O)NC1(c2ccccc2F)CC1`, which cytotoxicity at 70.5 h is on record?
A: The cytotoxicity at 70.5 h was -5.87%.

Q: For `CC1(C)CN=C(N2CCN(CCCN3CCOCC3)CC2)S1`, which cytotoxicity at 70.5 h is on record?
A: The cytotoxicity at 70.5 h was -8.84%.

Q: For `COc1cccc(OCC(=O)N(C)c2cccnc2N(C)C)c1`, which cytotoxicity at 70.5 h is on record?
A: Its cytotoxicity at 70.5 h is -8.02%.

Q: Which cytotoxicity at 70.5 h does the source give for `Cc1nc(SC2CCN(c3sccc3C#N)C2=O)oc1C` (stereo not given) here?
A: The cytotoxicity at 70.5 h was -1.94%.

Q: Which cytotoxicity at 70.5 h does the source give for `CCOC1CCCN(C(=O)c2ccccc2NCc2cccnc2)C1` (stereo not given) here?
A: Its cytotoxicity at 70.5 h is 15.9%.

Q: For `CC1(C)CN=C(N2CCN(CC3CCCCO3)CC2)S1` (stereo not given), which cytotoxicity at 70.5 h is on record?
A: Its cytotoxicity at 70.5 h is 0.00251%.

Q: Which cytotoxicity at 70.5 h does the source give for `CN(Cc1ccco1)C(=O)CN1CCN(C)c2ccccc2C1` here?
A: Its cytotoxicity at 70.5 h is -3%.

Q: Which cytotoxicity at 70.5 h does the source give for `COc1cccc2c1N(S(=O)(=O)c1cc(C(=O)O)cs1)CCC2` here?
A: Its cytotoxicity at 70.5 h is -6.55%.

Q: With `c1ccc(-c2cnc(CNC3CCc4ncnn4C3)o2)cc1` (stereo not given) as the compound, how does the cytotoxicity at 70.5 h read?
A: The cytotoxicity at 70.5 h was 0.0931%.

Q: Which cytotoxicity at 70.5 h does the source give for `CCc1nnsc1C(=O)N1CCN(CC(O)C(C)(C)C)CC1` (stereo not given) here?
A: Its cytotoxicity at 70.5 h is -10.2%.

Q: With `CC(NC(=O)N1CCC(CC(N)=O)CC1)c1csc2ccccc12` (stereo not given) as the compound, how does the cytotoxicity at 70.5 h read?
A: Its cytotoxicity at 70.5 h is -10.8%.

Q: For `O=C(Nc1nnn[nH]1)c1ccc(-n2cccc2)c(F)c1`, which cytotoxicity at 70.5 h is on record?
A: The cytotoxicity at 70.5 h was -9.42%.

Q: With `COCc1cc(N(CC(F)F)C2CC2)n2ncnc2n1` as the compound, how does the cytotoxicity at 70.5 h read?
A: Its cytotoxicity at 70.5 h is -5.91%.

Q: With `O=C(O)c1csc(S(=O)(=O)N2CCCc3cc(OC(F)F)ccc32)c1` as the compound, how does the cytotoxicity at 70.5 h read?
A: The cytotoxicity at 70.5 h was -10.7%.

Q: For `Cc1ccccc1CNCC(O)c1ccc(OC(C)C)cc1` (stereo not given), which cytotoxicity at 70.5 h is on record?
A: Its cytotoxicity at 70.5 h is -0.135%.

Q: For `O=C(CN1CCOc2ccc(Cl)cc21)NCCCn1ccnc1`, which cytotoxicity at 70.5 h is on record?
A: Its cytotoxicity at 70.5 h is -5.4%.

Q: With `O=C(CN1CCOc2ccc(Cl)cc21)NCc1ncc[nH]1` as the compound, how does the cytotoxicity at 70.5 h read?
A: Its cytotoxicity at 70.5 h is -2.35%.

Q: For `CCCNC(=O)C(C)Nc1ccn(Cc2ccccn2)n1` (stereo not given), which cytotoxicity at 70.5 h is on record?
A: Its cytotoxicity at 70.5 h is 1.09%.

Q: With `O=C(c1ccc2nncn2c1)N1CCSC2(CCCCC2)C1` as the compound, how does the cytotoxicity at 70.5 h read?
A: The cytotoxicity at 70.5 h was 11.5%.

Q: For `CCCN1CCC(Nc2nc(CC)ns2)CC1`, which cytotoxicity at 70.5 h is on record?
A: The cytotoxicity at 70.5 h was -2.52%.

Q: For `CC1(C)CN(C(=O)c2ccc3nncn3c2)CCS1`, which cytotoxicity at 70.5 h is on record?
A: The cytotoxicity at 70.5 h was -5.72%.

Q: Which cytotoxicity at 70.5 h does the source give for `CCN(C)S(=O)(=O)NCC(O)c1cc2ccccc2s1` (stereo not given) here?
A: The cytotoxicity at 70.5 h was -0.185%.

Q: For `COC(=O)c1ccc(Cl)c(CN(C)Cc2ncnn2C)c1`, which cytotoxicity at 70.5 h is on record?
A: Its cytotoxicity at 70.5 h is 1.01%.

Q: With `Cc1c(F)cccc1S(=O)(=O)NCC(C)(C)CC(C)O` (stereo not given) as the compound, how does the cytotoxicity at 70.5 h read?
A: Its cytotoxicity at 70.5 h is -5.55%.

Q: Which cytotoxicity at 70.5 h does the source give for `CN(Cc1cc(Cl)ccc1Cl)Cc1ncnn1C` here?
A: Its cytotoxicity at 70.5 h is -1.99%.

Q: With `CC(C)Cc1nc(CN(C)CCOc2ccc(F)cc2)no1` as the compound, how does the cytotoxicity at 70.5 h read?
A: The cytotoxicity at 70.5 h was -8.43%.

Q: For `Cc1ccccc1OCCN(C)Cc1noc(CC(C)C)n1`, which cytotoxicity at 70.5 h is on record?
A: The cytotoxicity at 70.5 h was 4.63%.

Q: For `COC(=O)c1cccc(CN(C)Cc2ncnn2C)c1C#N`, which cytotoxicity at 70.5 h is on record?
A: Its cytotoxicity at 70.5 h is 28.8%.

Q: Which cytotoxicity at 70.5 h does the source give for `COC(=O)N1CCCC(C(=O)N2CCCCC2)C1` (stereo not given) here?
A: The cytotoxicity at 70.5 h was -4.53%.

Q: With `CC(C)Cc1nc(CN(C)CCOc2ccccc2F)no1` as the compound, how does the cytotoxicity at 70.5 h read?
A: The cytotoxicity at 70.5 h was 12.5%.

Q: Which cytotoxicity at 70.5 h does the source give for `Cc1cc(NC(=O)C(C)Nc2ccn(Cc3ccccn3)n2)on1` (stereo not given) here?
A: The cytotoxicity at 70.5 h was -10.1%.

Q: For `CN(Cc1ccco1)C(=O)CN1CCc2ccccc2C1`, which cytotoxicity at 70.5 h is on record?
A: Its cytotoxicity at 70.5 h is -7.16%.

Q: For `CNC(=O)C1CCCN(C(=O)C2CCC2)C1` (stereo not given), which cytotoxicity at 70.5 h is on record?
A: The cytotoxicity at 70.5 h was -11.6%.

Q: For `CCSc1cncc(N2CCC(NC(=O)C3CCCCC3)CC2)n1`, which cytotoxicity at 70.5 h is on record?
A: The cytotoxicity at 70.5 h was -13.5%.

Q: For `CCN1CCCCC1C(=O)Nc1cccc(-c2nnc[nH]2)c1` (stereo not given), which cytotoxicity at 70.5 h is on record?
A: Its cytotoxicity at 70.5 h is -0.846%.

Q: Which cytotoxicity at 70.5 h does the source give for `CCCN1CCCCC1C(=O)Nc1ccc(-c2nnc[nH]2)cc1` (stereo not given) here?
A: Its cytotoxicity at 70.5 h is -4.51%.

Q: Which cytotoxicity at 70.5 h does the source give for `O=C(NC1CCN(c2ncccn2)CC1)c1cccc(-n2ccnc2)c1` here?
A: The cytotoxicity at 70.5 h was -7.96%.

Q: Which cytotoxicity at 70.5 h does the source give for `O=S(=O)(CC1CCCO1)Nc1cc(Cl)ccc1-n1cccn1` (stereo not given) here?
A: Its cytotoxicity at 70.5 h is 2.79%.

Q: For `O=S(=O)(CC1CCCCO1)Nc1cc(F)ccc1-n1cccn1` (stereo not given), which cytotoxicity at 70.5 h is on record?
A: The cytotoxicity at 70.5 h was 9.49%.

Q: With `CCCS(=O)(=O)CC(=O)Nc1cc(CC(C)(C)C)n[nH]1` as the compound, how does the cytotoxicity at 70.5 h read?
A: The cytotoxicity at 70.5 h was -0.508%.

Q: Which cytotoxicity at 70.5 h does the source give for `Cn1ccnc(Sc2ccc(O)cc2)c1=O` here?
A: Its cytotoxicity at 70.5 h is -14.3%.

Q: For `Cn1ccnc(Sc2cccc(C#N)c2)c1=O`, which cytotoxicity at 70.5 h is on record?
A: The cytotoxicity at 70.5 h was -4.29%.

Q: With `Cc1noc(C)c1C[S+]([O-])Cc1cn2cccc(C)c2n1` (stereo not given) as the compound, how does the cytotoxicity at 70.5 h read?
A: Its cytotoxicity at 70.5 h is -4.48%.

Q: With `Cc1ccc(C)c(Sc2nccn(C)c2=O)c1` as the compound, how does the cytotoxicity at 70.5 h read?
A: Its cytotoxicity at 70.5 h is -10.6%.

Q: For `CCCc1nc(C[S+]([O-])Cc2cn3cccc(C)c3n2)no1` (stereo not given), which cytotoxicity at 70.5 h is on record?
A: The cytotoxicity at 70.5 h was -3.84%.

Q: Which cytotoxicity at 70.5 h does the source give for `CC(=O)c1ccc(CNC(=O)c2cc(C#N)cn2C)nc1C` here?
A: The cytotoxicity at 70.5 h was -4.66%.

Q: For `O=S(=O)(CC1CCCCO1)Nc1c(F)cccc1-n1cccn1` (stereo not given), which cytotoxicity at 70.5 h is on record?
A: The cytotoxicity at 70.5 h was -3.07%.

Q: For `O=C(NC1CCN(c2ncccc2F)C1)c1cccc(-n2ccnc2)c1` (stereo not given), which cytotoxicity at 70.5 h is on record?
A: Its cytotoxicity at 70.5 h is -9.37%.

Q: Which cytotoxicity at 70.5 h does the source give for `Cc1csc(CCCNC(C)CC(=O)Nc2ccc(F)cc2)n1` (stereo not given) here?
A: The cytotoxicity at 70.5 h was 5.43%.

Q: For `C=C(C)CNC(C)c1ccc(S(C)(=O)=O)c(F)c1` (stereo not given), which cytotoxicity at 70.5 h is on record?
A: The cytotoxicity at 70.5 h was -9.09%.

Q: With `NC(=O)COc1ccc(CNCc2cc(F)ccc2F)cc1` as the compound, how does the cytotoxicity at 70.5 h read?
A: Its cytotoxicity at 70.5 h is 32.7%.

Q: With `CC(NCc1c(C(C)C)nn(C)c1N(C)C)C(=O)NC1CCCC1` (stereo not given) as the compound, how does the cytotoxicity at 70.5 h read?
A: The cytotoxicity at 70.5 h was -6.36%.
